Data taken from patent publication US9512142B2, “Tricyclic triazolic compounds” (LABORATORIOS DEL DR. ESTEVE S.A., priority 2013, dated 2016).
pKi: −log10 of the molar value. ≈ marks a conversion by molar mass, not a printed value.

tested on: not listed separately; assay: Kinetic solubility; assay type: physicochemical; details: aqueous buffer, kinetic from dmso stock; buffered aqueous solution at pH=7.4, 10 μL of 10 mM DMSO solution in 1 mL, stirred 4 hours, supernatant by liquid chromatography; read-out: Kin. Solub.
Protocol: To a buffered aqueous solution at pH=7.4 (1 mL), a 10 mM DMSO solution of the test compound (10 μL) was added and the mixture stirred for 4 hours. After centrifugation, the compound concentration in the supernatant was determined by liquid chromatography by fitting in a calibration curve of the compound.

Structure (SMILES)	solubility at 4 h [µM]
Cl.Fc1ccccc1-c1nnn2c1CO[C@@H]1CN(Cc3ccncc3)C[C@H]12 (racemic) [Example 2, (5aRS,8aRS)-3-(2-fluorophenyl)-7-(pyridin-4-ylmethyl)-4,5a,6,7,8,8a-hexahydropyrrolo[3,4-b][1,2,3]triazolo[1,5-d][1,4]oxazine hydrochloride]	> 10
Cl.Fc1ccccc1-c1nnn2c1CO[C@@H]1CN(Cc3ccccn3)C[C@H]12 (racemic) [Example 3, (5aRS,8aRS)-3-(2-fluorophenyl)-7-(pyridin-2-ylmethyl)-4,5a,6,7,8,8a-hexahydropyrrolo[3,4-b][1,2,3]triazolo[1,5-d][1,4]oxazine hydrochloride]	> 10
Cl.Fc1ccc(-c2nnn3c2CO[C@@H]2CN(Cc4ccoc4)C[C@H]23)cc1 (racemic) [Example 21, (5aRS,8aRS)-3-(4-fluorophenyl)-7-(furan-3-ylmethyl)-4,5a,6,7,8,8a-hexahydropyrrolo[3,4-b][1,2,3]triazolo[1,5-d][1,4]oxazine hydrochloride]	> 10
Cl.Fc1ccc(CN2C[C@@H]3[C@@H](C2)OCc2c(-c4ccncc4)nnn23)cc1 (racemic) [Example 26, (5aRS,8aRS)-7-(4-fluorobenzyl)-3-(pyridin-4-yl)-4,5a,6,7,8,8a-hexahydropyrrolo[3,4-b][1,2,3]triazolo[1,5-d][1,4]oxazine hydrochloride]	> 10
Cl.Fc1ccccc1-c1nnn2c1CO[C@@H]1CN(Cc3cccnc3)C[C@H]12 [Example 1, (5aR,8aR)-3-(2-fluorophenyl)-7-(pyridin-3-ylmethyl)-4,5a,6,7,8,8a-hexahydropyrrolo[3,4-b][1,2,3]triazolo[1,5-d][1,4]oxazine hydrochloride]	> 20
Cl.Fc1ccc(-c2nnn3c2CO[C@H]2CN(C4CCOCC4)C[C@@H]23)cc1 [Example 4, (5aS,8aS)-3-(4-fluorophenyl)-7-(tetrahydro-2H-pyran-4-yl)-4,5a,6,7,8,8a-hexahydropyrrolo[3,4-b][1,2,3]triazolo[1,5-d][1,4]oxazine hydrochloride]	> 10
Cl.Fc1ccccc1-c1nnn2c1CO[C@@H]1CN(C3CCOCC3)C[C@H]12 [Example 7, (5aR,8aR)-3-(2-fluorophenyl)-7-(tetrahydro-2H-pyran-4-yl)-4,5a,6,7,8,8a-hexahydropyrrolo[3,4-b][1,2,3]triazolo[1,5-d][1,4]oxazine hydrochloride]	> 10
COc1ccc(-c2nnn3c2CO[C@H]2CN(C4CCOCC4)C[C@@H]23)cn1.Cl [Example 8, (5aS,8aS)-3-(6-methoxypyridin-3-yl)-7-(tetrahydro-2H-pyran-4-yl)-4,5a,6,7,8,8a-hexahydropyrrolo[3,4-b][1,2,3]triazolo[1,5-d][1,4]oxazine hydrochloride]	> 10
Cl.Fc1ccc(CN2C[C@@H]3[C@@H](C2)OCc2c(-c4ccccc4F)nnn23)cn1 [Example 11, (5aR,8aR)-3-(2-fluorophenyl)-7-((6-fluoropyridin-3-yl)methyl)-4,5a,6,7,8,8a-hexahydropyrrolo[3,4-b][1,2,3]triazolo[1,5-d][1,4]oxazine hydrochloride]	> 10
Cl.Fc1ccc(CN2C[C@@H]3OCc4c(-c5ccccn5)nnn4[C@H]3C2)cc1 [Example 25, (5aS,8aS)-7-(4-fluorobenzyl)-3-(pyridin-2-yl)-4,5a,6,7,8,8a-hexahydropyrrolo[3,4-b][1,2,3]triazolo[1,5-d][1,4]oxazine hydrochloride]	> 10
Cl.Clc1ccc(-c2nnn3c2CO[C@@H]2CN(CC4CCOCC4)C[C@H]23)c(Cl)c1 [Example 44, (5aR,8aR)-3-(2,4-dichlorophenyl)-7-((tetrahydro-2H-pyran-4-yl)methyl)-4,5a,6,7,8,8a-hexahydropyrrolo[3,4-b][1,2,3]triazolo[1,5-d][1,4]oxazine hydrochloride]	> 10
Cl.Fc1ccc(CN2C[C@@H]3[C@@H](C2)OCc2c(C4CCOCC4)nnn23)cc1 [Example 64, (5aR,8aR)-7-(4-fluorobenzyl)-3-(tetrahydro-2H-pyran-4-yl)-4,5a,6,7,8,8a-hexahydropyrrolo[3,4-b][1,2,3]triazolo[1,5-d][1,4]oxazine hydrochloride]	> 10

same assay, conditions: buffered aqueous solution at pH=7.4, 10 μL of 10 mM DMSO solution in 1 mL, stirred 4 hours, supernatant by liquid chromatography; read-out: Kin. Solub.

Structure (SMILES)	solubility at 4 h [µM]
Fc1ccc(CN2C[C@@H]3[C@@H](C2)OCc2c(-c4cccc(F)c4)nnn23)cc1 [drawing 121, reference compound]	3.9 (≈ 1.44 µg/mL)

same assay, conditions: buffered aqueous solution, pH 7.4, aqueous buffer, kinetic from dmso stock, buffered aqueous solution at pH=7.4, 10 μL of 10 mM DMSO solution in 1 mL, stirred 4 hours, supernatant by liquid chromatography; read-out: Kin. Solub.

Structure (SMILES)	solubility at 4 h [µM]
Cl.Fc1ccc(-c2nnn3c2CO[C@@H]2CN(C4CCOCC4)C[C@H]23)cc1 [Example 5, (5aR,8aR)-3-(4-fluorophenyl)-7-(tetrahydro-2H-pyran-4-yl)-4,5a,6,7,8,8a-hexahydropyrrolo[3,4-b][1,2,3]triazolo[1,5-d][1,4]oxazine hydrochloride]	> 10
Cl.Fc1ccccc1-c1nnn2c1CO[C@H]1CN(C3CCOCC3)C[C@@H]12 [Example 6, (5aS,8aS)-3-(2-fluorophenyl)-7-(tetrahydro-2H-pyran-4-yl)-4,5a,6,7,8,8a-hexahydropyrrolo[3,4-b][1,2,3]triazolo[1,5-d][1,4]oxazine hydrochloride]	> 10
CCOc1ccc(CN2C[C@@H]3OCc4c(-c5ccccc5F)nnn4[C@H]3C2)cn1.Cl [Example 20, (5aS,8aS)-7-((6-ethoxypyridin-3-yl)methyl)-3-(2-fluorophenyl)-4,5a,6,7,8,8a-hexahydropyrrolo[3,4-b][1,2,3]triazolo[1,5-d][1,4]oxazine hydrochloride]	> 10
Cl.Fc1ccc(CN2C[C@@H]3[C@@H](C2)OCc2c(-c4ccccn4)nnn23)cc1 [Example 24, (5aR,8aR)-7-(4-fluorobenzyl)-3-(pyridin-2-yl)-4,5a,6,7,8,8a-hexahydropyrrolo[3,4-b][1,2,3]triazolo[1,5-d][1,4]oxazine hydrochloride]	> 10
Cl.Fc1ccc(-c2nnn3c2CO[C@@H]2CN(C4CCOCC4)C[C@H]23)c(F)c1 [Example 28, (5aR,8aR)-3-(2,4-difluorophenyl)-7-(tetrahydro-2H-pyran-4-yl)-4,5a,6,7,8,8a-hexahydropyrrolo[3,4-b][1,2,3]triazolo[1,5-d][1,4]oxazine hydrochloride]	> 10
Cl.Fc1ccc(-c2nnn3c2CO[C@@H]2CN(CCC4CCOCC4)C[C@H]23)c(F)c1 [Example 40, (5aR,8aR)-3-(2,4-difluorophenyl)-7-(2-(tetrahydro-2H-pyran-4-yl)ethyl)-4,5a,6,7,8,8a-hexahydropyrrolo[3,4-b][1,2,3]triazolo[1,5-d][1,4]oxazine hydrochloride]	> 10
Cl.Fc1ccc(-c2nnn3c2CO[C@H]2CN(CCC4CCOCC4)C[C@@H]23)c(F)c1 [Example 41, (5aS,8aS)-3-(2,4-difluorophenyl)-7-(2-(tetrahydro-2H-pyran-4-yl)ethyl)-4,5a,6,7,8,8a-hexahydropyrrolo[3,4-b][1,2,3]triazolo[1,5-d][1,4]oxazine hydrochloride]	> 10
Cl.Clc1ccc(-c2nnn3c2CO[C@H]2CN(CC4CCOCC4)C[C@@H]23)c(Cl)c1 [Example 45, (5aS,8aS)-3-(2,4-dichlorophenyl)-7-((tetrahydro-2H-pyran-4-yl)methyl)-4,5a,6,7,8,8a-hexahydropyrrolo[3,4-b][1,2,3]triazolo[1,5-d][1,4]oxazine hydrochloride]	> 10
Cl.Fc1ccc(CN2C[C@@H]3OCc4c(C5CCOCC5)nnn4[C@H]3C2)cc1 [Example 65, (5aS,8aS)-7-(4-fluorobenzyl)-3-(tetrahydro-2H-pyran-4-yl)-4,5a,6,7,8,8a-hexahydropyrrolo[3,4-b][1,2,3]triazolo[1,5-d][1,4]oxazine hydrochloride]	> 10
Fc1ccc(CN2C[C@@H]3[C@@H](C2)OCc2c(-c4cccc(F)c4)nnn23)cc1 [drawing 113, reference compound]	3.4 (≈ 1.25 µg/mL)
Fc1ccc(-c2nnn3c2CO[C@@H]2CN(Cc4ccccc4)C[C@H]23)cc1 [reference compound]	1.82 (≈ 0.638 µg/mL)
Fc1ccc(CN2C[C@@H]3[C@@H](C2)OCc2c(-c4ccc(F)cc4F)nnn23)cc1 [reference compound]	2.13 (≈ 0.823 µg/mL)
Clc1ccc(-c2nnn3c2COC2CN(Cc4ccccc4)C[C@H]23)cc1 (stereo partly shown) [reference compound]	0.93 (≈ 0.341 µg/mL)
Clc1ccc(-c2nnn3c2CO[C@@H]2CN(Cc4ccccc4)C[C@H]23)c(Cl)c1 [reference compound]	7.8 (≈ 3.13 µg/mL)
FC(F)(F)c1ccc(-c2nnn3c2COC2CN(Cc4ccccc4)C[C@H]23)cc1 (stereo partly shown) [reference compound]	< 0.4
COc1ccc(-c2nnn3c2CO[C@H]2CN(Cc4ccccc4)C[C@@H]23)cc1 [reference compound]	2.1 (≈ 0.761 µg/mL)
Fc1ccc(CN2C[C@@H]3OCc4c(-c5ccccc5F)nnn4[C@H]3C2)cc1 [reference compound]	3.08 (≈ 1.13 µg/mL)
Clc1cc(Cl)nc(N2CC3OCc4c(-c5ccccc5)nnn4[C@@H]3C2)n1 (stereo partly shown) [reference compound]	< 1

biological target: T1, human sigma 1 receptor (Homo sapiens, UniProt Q99720); assay: Human sigma 1 receptor radioligand assay ([3H](+)-pentazocine, transfected HEK-293 membranes); assay type: binding; details: 5 nM [3H](+)-pentazocine, transfected HEK-293 membranes, 37° C., 120 minutes; read-out: Ki
T1 construct: expressed in transfected cells; host or cells: HEK-293
Protocol: Human Sigma 1 Receptor Radioligand Assay
The assay was carried out with 7 μg of membrane suspension, 5 nM of [^3H](+)-pentazocine in either absence or presence of either buffer or 10 μM Haloperidol for total and non-specific binding, respectively. Binding buffer contained Tris-HCl 50 mM at pH 8. Plates were incubated at 37° C. for 120 minutes. After the incubation period, the reaction mix was then transferred to MultiScreen HTS, FC plates (Millipore), filtered and plates were washed 3 times with ice-cold 10 mM Tris-HCL (pH7.4). Filters were dried and counted at approximately 40% efficiency in a MicroBeta scintillation counter (Perkin-Elmer) using EcoScint liquid scintillation cocktail.

T1 sequence (Q99720 whole entry): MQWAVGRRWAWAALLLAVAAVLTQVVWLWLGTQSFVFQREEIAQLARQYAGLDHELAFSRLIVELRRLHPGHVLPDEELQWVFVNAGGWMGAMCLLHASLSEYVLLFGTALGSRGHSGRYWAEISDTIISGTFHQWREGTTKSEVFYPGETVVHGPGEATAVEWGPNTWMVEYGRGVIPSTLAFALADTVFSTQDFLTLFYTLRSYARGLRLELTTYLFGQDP

Structure (SMILES)	pKi
Cl.Fc1ccccc1-c1nnn2c1CO[C@@H]1CN(Cc3ccncc3)C[C@H]12 (racemic) [Example 2, (5aRS,8aRS)-3-(2-fluorophenyl)-7-(pyridin-4-ylmethyl)-4,5a,6,7,8,8a-hexahydropyrrolo[3,4-b][1,2,3]triazolo[1,5-d][1,4]oxazine hydrochloride]	6.50
Cl.Fc1ccc(-c2nnn3c2CO[C@@H]2CN(Cc4ccoc4)C[C@H]23)cc1 (racemic) [Example 21, (5aRS,8aRS)-3-(4-fluorophenyl)-7-(furan-3-ylmethyl)-4,5a,6,7,8,8a-hexahydropyrrolo[3,4-b][1,2,3]triazolo[1,5-d][1,4]oxazine hydrochloride]	7.78
Cl.Fc1ccc(CN2C[C@@H]3[C@@H](C2)OCc2c(-c4ccncc4)nnn23)cc1 (racemic) [Example 26, (5aRS,8aRS)-7-(4-fluorobenzyl)-3-(pyridin-4-yl)-4,5a,6,7,8,8a-hexahydropyrrolo[3,4-b][1,2,3]triazolo[1,5-d][1,4]oxazine hydrochloride]	6.88
Cl.Fc1ccc(-c2nnn3c2CO[C@H]2CN(C4CCOCC4)C[C@@H]23)cc1 [Example 4, (5aS,8aS)-3-(4-fluorophenyl)-7-(tetrahydro-2H-pyran-4-yl)-4,5a,6,7,8,8a-hexahydropyrrolo[3,4-b][1,2,3]triazolo[1,5-d][1,4]oxazine hydrochloride]	7.64
COc1ccc(-c2nnn3c2CO[C@H]2CN(C4CCOCC4)C[C@@H]23)cn1.Cl [Example 8, (5aS,8aS)-3-(6-methoxypyridin-3-yl)-7-(tetrahydro-2H-pyran-4-yl)-4,5a,6,7,8,8a-hexahydropyrrolo[3,4-b][1,2,3]triazolo[1,5-d][1,4]oxazine hydrochloride]	6.64
Cl.Fc1ccc(CN2C[C@@H]3[C@@H](C2)OCc2c(-c4ccccc4F)nnn23)cn1 [Example 11, (5aR,8aR)-3-(2-fluorophenyl)-7-((6-fluoropyridin-3-yl)methyl)-4,5a,6,7,8,8a-hexahydropyrrolo[3,4-b][1,2,3]triazolo[1,5-d][1,4]oxazine hydrochloride]	6.62
